Measured values published in patent publication EP0322747B1, “A brain neuron protecting agent containing a dihydropyridine compound” (priority 1987, dated 1989).

Legend:
Assay in all cases: Prophylactic effect on ischemic breakdown of cytoskeletal proteins, 5-minute brain ischemia-reperfusion model
Assay type in all cases: in vivo, gerbil
calspectin = settings: number of brain sites with significant effect
Description: (§1) A gerbil was immobilized in supine position and median section was performed in the cervical region under local anesthesia. Then, the bilateral common carotid arteries were stripped off carefully not to injure the vagus and sympathetic nerves running in parallel, . Then, each common carotid artery was obstructed with a small clip and after an interval of 5, 10 or 15 minutes, the clips were removed. The animal was decapitated immediately, 4 days or 1 week after the removal of the clips, and the brain was isolated. Untreated animals served as controls and animals undergoing sham operation (involving the stripping procedure only) were also investigated. The isolated brain was sectioned under ice-cooling into the frontal cortex (upper 2/3, approximately corresponding to the 1st to the 5th layer, ∼80 mg), striatum (∼20 mg) and hippocampus (∼50 mg) and each portion was homogenized in 4 times volume of (v/w) of 0.01 M phosphate buffer (pH 7.2). Each homogenate was centrifuged at 100,000 G for 30 minutes to obtain a supernatant. Equal parts of these supernatants were subjected to SDS-polyacrylamide gel (5%) electrophoresis and the proteins, namely MAP-2 (MW: 250-260K) calspectin (MW: 230-240K) and clathrin (MW: 180K), were quantified by measuring the absorbances at 560 nm with a densitometer (CS-930, Shimazu), and the proportion of each protein to the total water-soluble protein (exactly, the integral sum of the absorbance areas) was calculated. In addition, the relative percentage to the value of the untreated control group was also calculated.
(§2) Two series of experiments were carried out. […] One hour after the reperfusion, the animal was killed by decapitation and the brain was removed. […] One hour after the final administration (day 5), the animal was decapitated and the brain was isolated. The isolated brain was subjected to fractionation and electrophoresis as described above.

MAP-2 = system: MAP-2
Description: as §1, §2

clathrin = settings: for Total score, Clathrin: number of brain sites with significant effect
Description: as §1, §2

[1] = Left: dosed 1 hour before ischemia, killed 1 hour after ischemia
[2] = Right: dosed 1 hour before ischemia and for 4 subsequent days
[3] = Left: dosed 1 hour before ischemia, killed 1 hour after ischemia, number of brain sites with significant effect
[4] = Right: dosed 1 hour before ischemia and for 4 subsequent days, number of brain sites with significant effect
[5] = sum of left and right (in brackets)

Compound: COC(=O)C1=C(C)NC(C)=C(C(=O)OCCN(C)Cc2ccccc2)C1c1cccc([N+](=O)[O-])c1 (centres unmarked) [Nicardipine, nicardipine]
- Total score, Calspectin (calspectin; [1]): 0/0 (0)
- Total score, Calspectin (calspectin; [2]): 0/0 (0)
- Total score, MAP-2 (MAP-2; [3]): 2
- Total score, MAP-2 (MAP-2; [4]): 2
- Total score, MAP-2 (MAP-2; [5]): 4
- Total score, Clathrin (clathrin; [1]): 0/0 (0)
- Total score, Clathrin (clathrin; [2]): 0/0 (0)

Compound: COCCOC(=O)C1=C(C)NC(C)=C(C(=O)OC(C)C)C1c1cccc([N+](=O)[O-])c1 (centres unmarked) [Nimodipine, nimodipine]
- Total score, Calspectin (calspectin; [1]): 0/0 (0)
- Total score, Calspectin (calspectin; [2]): 0/0 (0)
- Total score, MAP-2 (MAP-2; [3]): 2
- Total score, MAP-2 (MAP-2; [4]): 1
- Total score, MAP-2 (MAP-2; [5]): 3
- Clathrin protein concentration (clathrin; Cortex, 0.01 mg/kg s.c. 1 hour before ischemia, 1 hour after ischemia): 81.9± 5.5 % of normal value
- Clathrin protein concentration (clathrin; Cortex, 0.1 mg/kg s.c. 1 hour before ischemia and once a day for 4 days, 4 days after ischemia): 52.3± 9.5 % of normal value
- Clathrin protein concentration (clathrin; Cortex, 0.1 mg/kg s.c. 1 hour before ischemia, 1 hour after ischemia): 81.8± 6.3 % of normal value
- Clathrin protein concentration (clathrin; Cortex, 1 mg/kg s.c. 1 hour before ischemia and once a day for 4 days, 4 days after ischemia): 55.8± 8.5 % of normal value
- Clathrin protein concentration (clathrin; Cortex, 1 mg/kg s.c. 1 hour before ischemia, 1 hour after ischemia): 85.9± 4.0 % of normal value
- Clathrin protein concentration (clathrin; Cortex, 10 mg/kg s.c. 1 hour before ischemia and once a day for 4 days, 4 days after ischemia): 54.6± 5.7 % of normal value
- Clathrin protein concentration (clathrin; Hippocampus, 0.01 mg/kg s.c. 1 hour before ischemia, 1 hour after ischemia): 52.1± 3.3 % of normal value
- Clathrin protein concentration (clathrin; Hippocampus, 0.1 mg/kg s.c. 1 hour before ischemia and once a day for 4 days, 4 days after ischemia): 46.6± 4.2 % of normal value
- Clathrin protein concentration (clathrin; Hippocampus, 0.1 mg/kg s.c. 1 hour before ischemia, 1 hour after ischemia): 56.7± 7.1 % of normal value
- Clathrin protein concentration (clathrin; Hippocampus, 1 mg/kg s.c. 1 hour before ischemia and once a day for 4 days, 4 days after ischemia): 51.2±10.7 % of normal value
- Clathrin protein concentration (clathrin; Hippocampus, 1 mg/kg s.c. 1 hour before ischemia, 1 hour after ischemia): 61.6±12.2 % of normal value
- Clathrin protein concentration (clathrin; Hippocampus, 10 mg/kg s.c. 1 hour before ischemia and once a day for 4 days, 4 days after ischemia): 64.6±15.0 % of normal value
- Total score, Clathrin (clathrin; [1]): 0/0 (0)
- Total score, Clathrin (clathrin; [2]): 0/0 (0)
- Clathrin protein concentration (clathrin; Striatum, 0.01 mg/kg s.c. 1 hour before ischemia, 1 hour after ischemia): 70.5±21.1 % of normal value
- Clathrin protein concentration (clathrin; Striatum, 0.1 mg/kg s.c. 1 hour before ischemia and once a day for 4 days, 4 days after ischemia): 53.6±11.3 % of normal value
- Clathrin protein concentration (clathrin; Striatum, 0.1 mg/kg s.c. 1 hour before ischemia, 1 hour after ischemia): 68.7±11.9 % of normal value
- Clathrin protein concentration (clathrin; Striatum, 1 mg/kg s.c. 1 hour before ischemia and once a day for 4 days, 4 days after ischemia): 57.9± 5.3 % of normal value
- Clathrin protein concentration (clathrin; Striatum, 1 mg/kg s.c. 1 hour before ischemia, 1 hour after ischemia): 69.8±12.7 % of normal value
- Clathrin protein concentration (clathrin; Striatum, 10 mg/kg s.c. 1 hour before ischemia and once a day for 4 days, 4 days after ischemia): 62.0±10.2 % of normal value
